Experimental data taken from US6914064B2, “1,4-Disubstituted piperazine derivatives useful as uro-selective α1-adrenoceptor blockers” (Ranbaxy Laboratories Limited, priority 2000, dated 2005).
pKi: −log10 of the molar value.

Assays:
[1] = molecular target: T1, α1A adrenoceptor (prostate) (Rattus norvegicus, UniProt P43140); assay: In vitro functional study, antagonism of phenylepinephrine-induced contraction of prostate; format: biochemical; details: for Selectivity α1A/α1B / Selectivity α1A/α1D: functional assays, from pKB values; for Kb: prostate, phenylepinephrine, tested compound at 0.1, 1 and 10 mM, read-out: α Adrenoceptor Subtype (pKB) α1A (converted)
T1 construct: from tissue; host or cells: isolated prostate tissue
T1 sequence (P43140 1-466): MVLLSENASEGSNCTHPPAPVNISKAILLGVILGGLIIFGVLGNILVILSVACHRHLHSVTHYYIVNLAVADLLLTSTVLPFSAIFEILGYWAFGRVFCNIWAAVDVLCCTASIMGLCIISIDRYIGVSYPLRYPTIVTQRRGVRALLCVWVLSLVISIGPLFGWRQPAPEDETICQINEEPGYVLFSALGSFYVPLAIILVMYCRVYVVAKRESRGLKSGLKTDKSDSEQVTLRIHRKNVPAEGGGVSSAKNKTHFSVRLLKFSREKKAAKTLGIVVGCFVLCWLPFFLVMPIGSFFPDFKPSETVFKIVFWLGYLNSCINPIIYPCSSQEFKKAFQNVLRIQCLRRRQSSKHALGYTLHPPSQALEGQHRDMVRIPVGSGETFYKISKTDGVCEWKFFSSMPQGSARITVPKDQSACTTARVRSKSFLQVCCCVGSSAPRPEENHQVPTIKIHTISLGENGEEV
From the text: (§1) In order to study selectivity of action of these compounds towards different α-adrenoceptor subtypes, the ability of these compounds to antagonise α1-adrenoceptor agonist induced contractile response on aorta (α1Dprostate (α1A and spleen (α1B was studied. Aorta and spleen tissues were isolated from urethane anaesthetised (1.5 gm/kg) male wistar rats. Isolated tissues were mounted in organ bath containing Krebs Henseleit buffer of following composition (mM): NaCl 118; KCl 4.7; CaCl2 2.5; MgSO4. 7H2O 1.2; NaHCO3 25; KH2PO41.2; glucose 11.5. Buffer was maintained at 37° C. and aereated with a mixture of 95% O2 and 5% CO2. A resting tension of 2 g (aorta) or 1 g (spleen and prostate)was applied to tissues. Contractile response was monitored using a force displacement transducer and recorded on chart recorders. Tissues were allowed to equilibrate for 2 hours. At the end of equilibration period, concentration response curves to norepinephrine (aorta) and phenylepinephrine (spleen and prostate) were obtained in absence and presence of tested compound (at concentration of 0.1,1 and 10 mM). Antagonist affinity was calculated and expressed as pKB vales in Table II.

α1B adrenoceptor = molecular target: T2, α1B adrenoceptor (Rattus norvegicus, UniProt P15823); assay: Receptor binding assay, displacement of [3H]prazosin, rat liver membranes; details: [3H]prazosin displacement, rat liver membranes; read-out: α1B (Rat liver) Ki
T2 construct: from tissue; host or cells: rat liver membranes
T2 sequence (P15823 1-515): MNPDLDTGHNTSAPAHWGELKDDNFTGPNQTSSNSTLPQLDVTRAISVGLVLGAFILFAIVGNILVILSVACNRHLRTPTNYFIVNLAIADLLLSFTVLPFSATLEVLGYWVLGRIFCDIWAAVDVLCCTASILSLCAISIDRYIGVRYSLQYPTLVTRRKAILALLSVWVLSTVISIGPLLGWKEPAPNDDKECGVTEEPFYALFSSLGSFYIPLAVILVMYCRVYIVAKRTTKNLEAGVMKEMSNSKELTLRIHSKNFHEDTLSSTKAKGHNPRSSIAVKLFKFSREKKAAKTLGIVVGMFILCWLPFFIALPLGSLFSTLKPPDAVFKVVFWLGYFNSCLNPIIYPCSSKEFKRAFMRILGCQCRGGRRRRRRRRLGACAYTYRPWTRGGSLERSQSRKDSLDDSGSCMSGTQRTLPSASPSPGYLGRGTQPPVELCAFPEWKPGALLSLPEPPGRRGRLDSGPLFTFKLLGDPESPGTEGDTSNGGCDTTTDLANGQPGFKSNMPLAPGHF
Outline: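 Rat liver membranes (150-250 μg protein) incubated with [3H]prazosin in 50 mM Tris HCl, 5 mM EDTA, pH 7.4, 1 h at 24-25° C; nonspecific binding with 300 nM prazosin. Bound radioactivity counted after filtration; IC50 by nonlinear fit, Ki via Cheng-Prusoff.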

[2] = molecular target: T3, α1B adrenoceptor (spleen) (Rattus norvegicus, UniProt P15823); assay: In vitro functional study, antagonism of phenylepinephrine-induced contraction of spleen; format: biochemical; details: tested compound at 0.1, 1 and 10 mM, read-out: α Adrenoceptor Subtype (pKB) α1B (converted)
T3 construct: Isolated tissues were mounted in organ bath containing Krebs Henseleit buffer; from tissue; host or cells: isolated spleen of male wistar rats
T3 sequence (P15823 1-515): T2 sequence (P15823 1-515)
From the text: as §1

| SMILES | Selectivity α1A/α1B [1] | Selectivity α1A/α1D [1] | Kb [1] [nM] | pKi (α1B adrenoceptor) | Kb [2] [nM] |
| --- | --- | --- | --- | --- | --- |
| COc1ccccc1N1CCN(CCCN2C(=O)C3CC=CCC3C2=O)CC1.Cl (centres unmarked) [Compound 01, 2-[3-{4-(2-Methoxyphenyl)piperazin-1-yl}propyl]-3a,4,7,7a-tetrahydro-1H-isoindole-1,3(2H)-dione hydrochloride] | 41 | 4 | 0.537 | 7.14 | 21.9 |
| CCOc1ccccc1N1CCN(CCCN2C(=O)C3CC=CCC3C2=O)CC1.Cl (centres unmarked) [Compound 11, 2-[3-{4-(2-Ethoxyphenyl)piperazin-1-yl}propyl]-3a,4,7,7a-tetrahydro-1H-isoindole-1,3(2H)-dione hydrochloride] | 47 | 15 | 0.112 | 7.72 | 5.25 |
| CC(C)Oc1ccccc1N1CCN(CCCN2C(=O)C3CC=CCC3C2=O)CC1.Cl (centres unmarked) [Compound 23, 2-[3-{4-(2-Isopropoxyphenyl)piperazin-1-yl}propyl]-3a,4,7,7a-tetrahydro-1H-isoindole-1,3(2H)-dione hydrochloride] | 170 | 1 | 0.115 | 7.55 | 19.5 |
| CCCOc1ccccc1N1CCN(CCCN2C(=O)C3CC=CCC3C2=O)CC1.Cl (centres unmarked) [Compound 24, 2-[3-{4-(2-Propoxyphenyl)piperazin-1-yl}propyl]-3a,4,7,7a-tetrahydro-1H-isoindole-1,3(2H)-dione hydrochloride] | 355 | 13 | 0.0398 | 7.55 | 14.1 |
